5 molecules from US6586470B1, “Insecticidal composition” (Ecoval INC, priority 1998, dated 2003) can be followed below.

The structures appear in SMILES notation.

For this experiment, the system named is Northern corn root worm adults (diabrotica longiscornis). The experiment is described as follows: Spray test on Northern corn root worm adults. The format is in vivo. As to conditions: insects sprayed, inspected after 24 hours, amounts in grams/litre. As to the method:
The insecticidal compositions being tested were formulated in aqueous solution. The amounts of the ingredients are specified in the examples, and unless stated otherwise, are expressed in grams/litre. The compositions were tested on Northern corn root worm adults (diabrotica longiscornis). The insects were treated and tested as indicated above.

For `CC(=O)O` [Sample 1, acetic acid], the “% Control” value is given as 0%, the Alive is reported as 10 and the Dead came out at 0.
For the molecule `O=C(O)CC(O)(CC(=O)O)C(=O)O` [Sample 2, citric acid], the “% Control” value was found to be 0%, the Alive is on record as 10 and the Dead came to 0.
For `CC(=O)O` [Sample 15, acetic acid], the “% Control” value is 0%, the Alive amounted to 10 and the Dead is on record as 0.
Turning to `CC(=O)O` [Sample 18, acetic acid], the “% Control” value is 30%, the Alive is 7 and the Dead was 3. In addition, under “listed as acetic acid at 50 g/l”, the “% Control” value is on record as “partial control”.
On to `O=C(O)CC(O)(CC(=O)O)C(=O)O` [Sample 19, citric acid], for which the “% Control” value is 20%, the Alive turned out to be 8 and the Dead turned out to be 2. Besides, the “% Control” value (listed as citric acid at 25 g/l) was “partial control”.
